Data set [1] relates to AMO-1 cells. The data set is described as follows: In vitro cell viability assay (CellTiter-Glo). The conditions noted are these: for Cell viability after compound washout (CellTiter-Glo): AMO-1, replicates. Format: cell-based, human. The arrangement: Cell viability after compound washout (CellTiter-Glo): scale not given here. How it is done:
All cell lines were grown and treated in RPMI 1640 or Dulbecco’s modified Eagle medium (Sigma, St. Louis, MO) supplemented with 10% fetal bovine serum (Gibco) or 10% human serum (Sigma) and maintained in a humidified incubator at 5% CO2 and 37 °C. DLD-1, MV4-11, NCI-H929 (all ATCC, Manassas, VA, USA) and AMO-1 (DSMZ, Braunschweig, Germany) cells were plated 4000 cells per well in 384-well tissue culture plates and treated with compounds of interest for 24 h at 37 °C, 5% CO2 humidified incubator. Each concentration was tested in duplicate at least 3 separate times. Adherent cells were allowed to adhere overnight prior to treatment. Alternatively, AMO-1 or NCI-H929 cells were treated with ABBV-467 for the indicated contact times (1–24 h) at 37 °C in a 5% CO2 humidified incubator and washed 3 times with compound-free media prior to incubation for the remainder of a 24-h treatment period. Cell viability was subsequently determined using CellTiter-Glo (Promega, Madison, WI, USA) according to the manufacturer’s instructions.
For in vitro viability assays, mean EC50 and EC90 values were determined from the resulting dose-response curves from at least 3 independent experiments, and depict the mean ± standard error of the mean.
Fig. 2 Apoptosis induced by ABBV-467 is mechanism based and induces cell death in MCL-1-dependent cell lines after short target engagement periods. H929 cells were treated with ABBV-467 in the presence or absence of the pan-caspase inhibitor z-VAD-fmk (50 µM) and the impact on caspase-3/7 activation (a), mitochondrial membrane potential (ΔΨm; b), and apoptosis (c) determined. Alternatively, BAK-deficient SKBR3 cells were treated with ABBV-467 for 24 h and the impact on cell viability compared with the parental cell line, determined by CellTiter-Glo. Inset depicts a western blot of BAK and BAX expression in SKBR3 cell variants using GAPDH as a loading control. Each of the 3 proteins were probed on separate blots (d). Data in (a–d) are presented as the mean ± standard error of the mean. H929 and AMO-1 cells were treated with ABBV-467 at the indicated concentrations and the impact on caspase-3/7 activation and viability (DRAQ7-positive) cells determined over time by Incucyte®. Data are presented as the mean ± standard deviation (e). H929 or AMO-1 cells were cultured in media containing 10% human serum and treated with ABBV-467 for the indicated contact times. Cells were subsequently washed 3 times with drug-free media and incubated in drug-free media for the remainder of the 24-h treatment period at 37 °C before cell viability was determined by CellTiter-Glo. Mean EC50 and EC90 values were determined from the resulting dose-response curves from at least 3 independent experiments, each assessed in quadruplicate, and depict the mean ± standard error of the mean. Presented ABBV-467 dose-response curves in H929 and AMO-1 cells were compiled from at least 3 independent experiments (f).
Background: Cellular ATP, detected with luciferase, serves as a proxy for viable cell number.

The test system of data set [2] is Murine p185+ B-ALL cells expressing human MCL-1. As to the kind of experiment: Engineered murine B-cell ALL lines, cell viability (CellTiter-Glo). Format: cell-based. The settings on record: Mus musculus, 24 hours, 10% fetal bovine serum. The procedure: Supplementary Table S3: Cellular potency and selectivity of ABBV-467 in
engineered murine B-c ell ALL c ell li nes
B-Cell ALL Lines (EC50, nM)
BCL-XL BCL-2 BCL-w BCL2A1 MCL-1
Murine p185+ B-ALL cells selectiv ely expressing individual human anti–BCL-2 family members (36)
were treated with ABBV-467 for 24 hours in RPMI-1640 media ( Life Technologies, CA) containing
10% fetal bovine serum, 55 μM 2 -mercaptoethanol, 2 mM glutamine, and 1%
penicil lin/ stre ptomycin an d th e i mpact on cell via bility de termi ned usi ng Ce llTiter- Glo. Each EC50 was
calculated from the resulting dose- response curves. Data are presented as the mean of three
independent experiments, except *(n=2). Where an EC50 could not be accurately determined,
activity was define d as >3,000 nM.
ALL, acute lymphoblastic leukemia; BCL- 2, B-cell lymphoma 2; EC 50, half maximal effective

Data set [3] has as its target hERG (Homo sapiens, UniProt Q12809). The data set is described as follows: hERG current, in vitro. The conditions noted are these: read-out: hERG tail current IC50. The class given is cell-based. How it is done: Supplementary Table S6: Maj or findings in safety pharmac ology cardiovascular studies c onduc ted with ABBV- […]
Species/Strain Route of Concentrations Sex and N Results
Administration or Doses per Group […]
Anesthetized IV 1, 3, and Male No effects up to a plasma concentration dog 10 m g/ k gN=4 o f 16 .83 µg/mL on […]
aged 8-12 months • Heart rate
• Systemic vascular resistance
At 67 .23 mg/m L, an increase in heart rate and decrease in systemic vascular
Conscious IV 0, 0.3, 1, and Male No effects on blood pressure, heart dog 3 mg/kg N=5–6a rate, or ECG parameters at any dose beagle (plasma concentration of 6.53 µg/mL at (aged 8-12 months 3-m g/ k g do s e )
ECG, electrocardiogram; IC50, half maximal inhibitory concentration; IV, intravenous; QTcV, QT interval correct ed accor ding to the Van de Water formula. No animals or data were excl uded from analysis . Studies were approved by the animal use committee of Abbvie, Lake County, IL. Healthy dogs, as determined by veterinary physical examination and clinical pathology, were selected for study based on availability without explicit randomization. Conscious dog telemetry utiliz ed a Latin square design to randomize for dose order e ff ects. The same 6 dogs received all d oses. Power analysis has shown a group size of 6 can statistically detect an approximately 20 % alteration in measured parameters w ith α =0.0 5. […]
On the technique in general: hERG is a cardiac potassium channel; its block is linked to QT prolongation.

For orientation: EC50 means the concentration giving half of the maximal effect. For orientation: EC90 means the point of the concentration-response curve where the effect stands at 90%. The term IC50 denotes the concentration at which inhibition is half-maximal.

Each structure is given as a SMILES string. Values joined by “and” are separate entries in the source; they are usually repeats but may differ in a detail not shown here. Equal entries are not always repeated. Where two headings read alike, the source gives them in different places.

Chain of hERG (Q12809 whole entry): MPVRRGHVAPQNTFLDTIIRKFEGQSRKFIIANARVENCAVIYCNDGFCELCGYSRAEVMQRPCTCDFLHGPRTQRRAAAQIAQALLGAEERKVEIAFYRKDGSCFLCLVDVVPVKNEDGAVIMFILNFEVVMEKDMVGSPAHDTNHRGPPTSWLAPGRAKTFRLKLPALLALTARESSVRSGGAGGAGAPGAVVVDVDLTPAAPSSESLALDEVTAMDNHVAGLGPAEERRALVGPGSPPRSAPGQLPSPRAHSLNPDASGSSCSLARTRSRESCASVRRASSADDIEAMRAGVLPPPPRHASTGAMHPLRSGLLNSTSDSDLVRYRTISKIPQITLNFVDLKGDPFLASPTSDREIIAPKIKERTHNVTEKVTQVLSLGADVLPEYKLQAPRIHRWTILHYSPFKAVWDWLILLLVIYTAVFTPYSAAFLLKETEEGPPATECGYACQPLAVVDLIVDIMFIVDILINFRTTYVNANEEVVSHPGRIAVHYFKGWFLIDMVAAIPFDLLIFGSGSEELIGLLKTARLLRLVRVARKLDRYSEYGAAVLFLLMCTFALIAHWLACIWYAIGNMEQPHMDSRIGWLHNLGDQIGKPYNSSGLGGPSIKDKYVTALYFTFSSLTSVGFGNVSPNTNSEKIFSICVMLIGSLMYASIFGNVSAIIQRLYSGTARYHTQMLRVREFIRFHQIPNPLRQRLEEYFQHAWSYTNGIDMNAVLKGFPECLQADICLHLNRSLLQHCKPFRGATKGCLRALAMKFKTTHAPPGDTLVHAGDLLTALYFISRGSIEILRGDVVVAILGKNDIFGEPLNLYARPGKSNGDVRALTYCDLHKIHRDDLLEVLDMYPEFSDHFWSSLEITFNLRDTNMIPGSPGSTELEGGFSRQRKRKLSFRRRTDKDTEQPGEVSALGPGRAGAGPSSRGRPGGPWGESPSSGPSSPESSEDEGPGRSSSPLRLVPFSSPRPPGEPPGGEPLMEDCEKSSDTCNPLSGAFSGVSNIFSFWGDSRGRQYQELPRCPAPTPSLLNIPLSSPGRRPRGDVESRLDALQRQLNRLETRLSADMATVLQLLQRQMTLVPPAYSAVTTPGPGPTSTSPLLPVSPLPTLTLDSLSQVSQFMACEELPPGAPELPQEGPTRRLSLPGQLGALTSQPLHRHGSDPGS

`Cc1c(Cl)c2c(Cl)c(C)c1-c1c(-c3ccc(F)cc3)sc3ncnc(c13)O[C@@H](C(=O)O)Cc1cc(ccc1OCc1ccnc(-c3ccc(OC[C@H]4COCCO4)cc3)n1)OC[C@@H](CN1CCN(C)CC1)O2` [ABBV-467]: the concentration for a half-maximal effect (EC50) in data set [1] (AMO-1, individual determinations, read-out: Individual EC50) is 0.224 nM and 0.216 nM and 0.212 nM and 0.145 nM and 0.159 nM and 0.131 nM and 0.106 nM and 0.0956 nM and 0.0874 nM and 0.217 nM and 0.188 nM; in data set [1] (Homo sapiens, AMO1, 10% human serum, contact time 1 hr, washout, viability at 24 h, read-out: AMO-1 Mean EC50) it was 31.9 nM; in data set [1] (Homo sapiens, AMO1, 10% human serum, contact time 2 hr, washout, viability at 24 h, read-out: AMO-1 Mean EC50), 27.1 nM; in data set [1] (Homo sapiens, AMO1, 10% human serum, contact time 4 hr, washout, viability at 24 h, read-out: AMO-1 Mean EC50), 17.4 nM; in data set [1] (Homo sapiens, AMO1, 10% human serum, contact time 6 hr, washout, viability at 24 h, read-out: AMO-1 Mean EC50), 9.4 nM; in data set [1] (Homo sapiens, AMO1, 24 h, 10% human serum, contact time 24 hr, read-out: AMO-1 Mean EC50), 0.7 nM. The EC50 came out at 0.1 nM in data set [1] (Homo sapiens, AMO1, 24 h, read-out: AMO-1 EC50 (nM, 10% FBS), 10% FBS, 24 h continuous treatment); 0.15 nM in data set [1] (Homo sapiens, AMO1, AMO-1, arithmetic mean, read-out: Arithmetic Mean EC50 nM); 0.155 nM in data set [1] (Homo sapiens, AMO1, AMO-1, arithmetic mean, read-out: Arithmetic Mean EC50 µM); 0.112 nM in data set [1] (Homo sapiens, AMO1, read-out: Individual EC50 µM, AMO-1, individual determinations); 0.16 nM in data set [1] (read-out: AMO-1 EC50 (nM, 10% FBS), 10% FBS, 24 h continuous treatment); 0.122 nM in data set [1] (read-out: Individual EC50 µM, AMO-1, individual determinations). Moreover, the concentration for a half-maximal effect (EC50) in data set [2] came out at 20.3 nM. The “Cell viability after compound washout (CellTiter-Glo)” value is 0.4281 and 0.471 and 0.3421 and 0.36 and 0.84 and 0.79 and 0.71 and 0.8 and 2.671 and 3.13 and 2.51 and 2.629 in data set [1] (2hr + 22hr, Log Conc 1); 0.4 in data set [1] (c49-c56, head empty, Log Conc 0.39794). Further, the EC90 amounted to 174 nM in data set [1] (Homo sapiens, AMO1, 10% human serum, contact time 2 hr, washout, viability at 24 h); 141 nM in data set [1] (Homo sapiens, AMO1, 10% human serum, contact time 4 hr, washout, viability at 24 h); 114 nM in data set [1] (Homo sapiens, AMO1, 10% human serum, contact time 6 hr, washout, viability at 24 h); 6.7 nM in data set [1] (Homo sapiens, AMO1, 24 h, 10% human serum, contact time 24 hr). Moreover, the half-maximal inhibitory concentration (IC50) in data set [3] was above 20.3 µg/mL.
